Data published in a melting point compilation (Tetko et al.; mined from patent text by program, amines drawn as free bases though some values may be those of a salt).

| Structure (SMILES) | melting point [°C] |
| --- | --- |
| Cc1cc(-c2ccccc2)nn2cnnc12 | 150 to 151 |
| Cn1nc(Sc2ccc(C(=O)OCC(C)(C)C)c(Cl)c2)n(C)c1=O | 101 |
| Cc1ccc2c(c1)CC(n1ccnc1C(N)=O)C2=O (stereo unspecified) | 196 |
| CCNC(=O)c1ccc(-c2ccc3c(c2)C(Nc2ccc(Cl)cc2)CC(C)N3C(C)=O)cc1 (stereo unspecified) | 134 |
| CC(=O)NC(=O)C(Cl)C(C)=O (stereo unspecified) | 54 to 58 |
| CON(C)C(=O)Nc1ccc(OCCc2ccc(C)cc2C)cc1 | 95 to 95.5 |
| Cc1cc(C)nc(OC(C)C(=O)O)n1 (stereo unspecified) | 117 |
| COc1ccc2c(c1)CC(=O)c1sccc1C2=C1CCN(C)CC1 | 157 to 158 |
| COc1cc(-c2nc(-c3ccc(N(C)C)cc3)c(C)s2)cc(OC)c1O | 230 to 233 |
| N#CCC(CC#N)c1cccc(Cl)c1Cl | 76 to 78 |
| FC(F)(F)c1cccc(-c2cnnn2-c2cc(Cl)ccc2OCc2nnn[nH]2)c1 | 181 to 184 |
| C=CCN(CC=C)Cc1noc(-c2ncn3c2[C@@H]2CCCN2C(=O)c2c(Cl)cccc2-3)n1 | 175 to 177 |
| CC(C)C(=O)NC[C@@H]1CN2C(=O)C[C@H]2O1 (racemic) | 76 to 77 |
| CC(C)(CNC(=O)c1ccccc1-c1ccccc1C(=O)O)SN=O | 121 to 123 |
| CCOC(=O)CC1=CC2C(CCC3(C)C(O)CCC23)c2ccc(O)cc21 (stereo unspecified) | 178 |
| Cc1cc(C(C)(C)C)c(Cl)c(C)c1SSc1c(C)cc(C(C)(C)C)c(Cl)c1C | 128 to 129 |
| CCN(C(=O)C(C)O)c1cn(-c2cccnc2)nc1Cl (stereo unspecified) | 137 to 138 |
| C#CCSc1nc(Cl)cc(NCc2ccc(Cl)cc2)n1 | 85 to 88 |
| CCN(CC)C(=O)N1CCN(c2nc(-c3ccccc3)cs2)CC1 | 76 to 77 |

| Structure (SMILES) | melting point [°C] |
| --- | --- |
| CS(=O)(=O)c1ccc(-c2c(-c3ccccc3)[nH]c3ccccc23)cc1 | 239 to 241 |
| COc1cccc2c(Nc3ccccc3C)nc(N3CCCC3)nc12 | 181 to 183 |
| CCC(C)C(=O)c1cn(C)cc(-c2cccc(C(F)(F)F)c2)c1=O (stereo unspecified) | 109 to 111 |
| COc1ccc(Nc2ccnc3nc(CO)ccc23)cc1 | 275 to 281 |
| CN1CCN(C2CC3C4CCC5CC(O)C(N6CCC(O)CC6)CC5(C)C4CCC3(C)C2O)CC1 (stereo unspecified) | 248 to 250 |
| Nc1ccccc1NCCO | 105 to 106 |
| COc1ccccc1N1CCN(CCCNC(=O)c2cc(OC(C)=O)cc3c(=O)c(C)c(-c4ccccc4)oc23)CC1 | 148 to 149 |
| NCCCN1CC=C(c2ccc(Cl)cc2)CC1 | 57 to 58 |
| COC(=O)c1cc(C(=O)OC)cc(-c2ccc(C=O)cc2)c1 | 166 to 169 |
| CC(C)(C)OC(=O)N1CCC(Nc2cccc(NC(=O)c3ccc(F)cc3Cl)n2)CC1 | 82 |
| CN1CCN(c2cccc3c2ccn3S(=O)(=O)c2ccc(F)cc2)CC1 | 151 to 152 |
| CCOC(=O)C1=C(COCCNC2=NCCS2)NC(C)=C(C(=O)OC)C1c1ccccc1Cl (stereo unspecified) | 145 to 147 |
| Cc1cccnc1-n1c(C)nc2ccccc2c1=O | 135 to 137 |
| COC(=O)c1cc(N)c(F)cc1Cl | 76 to 78 |
| C#C[C@]1(OC(C)=O)CC[C@H]2[C@@H]3CC(=C)C4=CC(=O)CC[C@@H]4[C@H]3CC[C@@]21C | 157 |
| COc1ccc(C(=O)c2ccccc2F)c(O)c1Cl | 132 to 133 |
| Clc1cccc(Nc2n[nH]c3ncnc(NCc4ccccc4)c23)c1 | 216 to 218 |
| CCOC(=O)Cc1ccc(-n2c(-c3cccnc3N)nc3ccc(-c4cccnc4)nc32)cc1 | 155 to 157 |
| CCOC(=O)C=Cc1ccc(C#CC2(O)CN3CCC2CC3)c(OCC)c1 (stereo unspecified) | 152 to 153 |

| Structure (SMILES) | melting point [°C] |
| --- | --- |
| COc1cc(C)c(C(=O)c2c(F)ncc(C)c2I)c(OC)c1OC | 140 to 141 |
| O=c1c2c(c1=O)NCCCN2 | 335 |
| C=Cc1c(F)c(F)cc2c(=O)c(C(=O)OCC)cn(C3CC3)c12 | 178 to 179 |
| O=C(CCCc1ccccc1)c1cc(O)c(O)c([N+](=O)[O-])c1 | 118 to 119 |
| O=C(NCC1CCC1)NCC1CCC1 | 153 to 155 |
| COc1ccc(CNC(=O)c2cnc(SC)nc2NC(C)C)cc1 | 176 to 177 |
| Cc1ccc(C=NNc2nsc3ccccc23)cc1 | 294 |
| C=CCN1C(=O)COc2cc(F)c(N)cc21 | 171 to 172 |
| CCOC(=O)c1nc2oc(C)c(C)c2c(=O)[nH]1 | 180 to 182 |
| CCOC(=O)c1[nH]c(CC)nc1C(C)(C)O | 181 to 184 |
| CC1(C)COC(=O)N1c1nc(-c2sc(C#N)cc2Br)cs1 | 230 to 234 |
| CC(=O)c1ccc2c(c1)C(C)(C)CC(=O)N2C | 75 to 77 |
| COC1=C(OC)C(=O)c2c(C#N)cccc2C1=O | 171 to 172 |
| CCCS(=O)(=O)N1C[C@@H](C)C[C@H](Nc2ncccc2-c2cnc3[nH]ccc3n2)C1 | 178 to 180 |
| O=C(O)COc1cc(Cl)ccc1C(=O)NCc1ccc(Br)cc1 | 172 to 173 |
| Cc1cccc(C2CC(=O)c3ccccc3O2)c1 (stereo unspecified) | 156 to 158 |
| CNC(=O)C(=NOC)c1cccc(Cl)c1COc1cc(C(F)(F)F)nc(OC(C)C)n1 | 116 to 118 |
| CCc1c2c(nc3cc(F)c(OC)cc13)-c1cc3c(c(=O)n1C2)COC(=O)CC3(O)CC (stereo unspecified) | > 275 |
| COC(=O)c1ccc(-c2ccc3cc(OCc4ccccc4)c(C45CC6CC(CC(C6)C4)C5)cc3c2)s1 | 170 to 171 |

Now from value to compound:

| melting point [°C] | Structure (SMILES) |
| --- | --- |
| 124 to 126 | CCCCOc1ccc(S(=O)(=O)N2CCN(C)CC2)cc1-c1nc2cc3nc[nH]c3cc2c(=O)[nH]1 |
| 176 to 177 | Cn1c(S(=O)(=O)CCO)nnc1S(=O)(=O)CCO |
| 162 to 164 | CC(C)(C)c1cc(C=C2SCN(C3CC3)C2=O)cc(C(C)(C)C)c1O |
| 166 | CC(c1c(F)ccc(F)c1Cl)N1CCNc2ncc(I)cc21 (stereo unspecified) |
| 229 to 231 | O=C1NCc2c(-c3ccccc3)cccc2N1C1CCCCC1 |
| 155 to 157 | CCc1ccc2c(Cc3nc4c(F)c(F)cc(F)c4s3)cn(CC(=O)O)c2n1 |
| 194 to 195 | COc1ccc(-c2c(Cl)c(CCl)nc3sc4c(c23)CCN(Cc2ccccc2)C4)cc1 |
| 161 to 164 | COc1nc(N)nc(C(F)(F)F)n1 |
| 110 to 111 | CC(=O)C1CCC(CNC(=O)c2cccnc2Oc2ccc(F)cc2)CC1 (stereo unspecified) |
| 147 | CC(C)C(=O)Oc1ccc2c(c1Cl)Sc1ccccc1N2C |
| 206 to 208 | CCOC(=O)c1cn2c(n1)CNc1ccccc1-2 |
| 164 to 166 | Oc1ccc2c(-c3ccccc3O)noc2c1 |
| 216 to 218 | O=c1[nH]cnc2c1sc(=O)n2C1OC(CO)C(O)C1O (stereo unspecified) |
| 59 to 61 | COC(=O)CCc1ccc(O)c(C(C)(C)C)c1 |
| 84 to 85 | Cc1cc2c(OCc3ccc(C#N)cc3)cccc2o1 |
| 210 to 211 | Cc1cc(-c2nc3cc(NC(=O)c4c(C(=O)N5CCC5)cnn4C)ccn3n2)ccn1 |
| 63.5 to 64.5 | CNc1cccc(Cl)n1 |
| 185 to 193 | O=C(O)c1cn(-c2ccc(F)cc2)c(-c2ccc(O)cc2)cc1=O |
| 192 | COc1ccc(C(=O)Nc2cccnc2Cl)c2c1oc1ccccc12 |
| 196 to 197 | CC(C)C(CCl)NC(=O)c1nsc2ccc(-n3c(=O)cc(C(F)(F)F)n(C)c3=O)cc12 (stereo unspecified) |
| 90 | CCCCC(=O)Nc1cccc(NC(=O)CC(C)=O)c1 |
| 70 | CC1(C)Cc2cc(Br)cc(O)c2O1 |
| 111 | COc1ccccc1C1(CC(=O)N2CCN(c3ccncc3)CC2)C(=O)Nc2ccc(Cl)cc21 (stereo unspecified) |
| 134 to 136 | O=C(O)C=C1COc2ccccc2C1=O |
| 213 to 215 | O=Cc1c(Cl)cc(O)c(O)c1Cl |

| melting point [°C] | Structure (SMILES) |
| --- | --- |
| 170 | c1ccc(CSc2nc3cc4ccccc4cc3[nH]2)nc1 |
| 158 | CN(C)c1nn(C(=O)NC(C)(C)CF)c(=O)n1NCc1cccc(Cl)c1 |
| 195 to 196 | CC(C)(C)c1cc(C=O)c2ccccc2c1O |
| 138 | O=C1CCC(c2ccccc2F)(c2ccccc2F)[C@@H]2CN(Cc3ccccc3)C[C@H]12 (racemic) |
| 117 to 120 | Cc1nnsc1C(=O)Nc1ccc(-n2nc(C3CC3)cc2C2CC2)cc1 |
| > 300 | O=c1[nH]c(=O)c2cn(C3CCCC3)nc2[nH]1 |
| 296 to 299 | CS(=O)(=O)c1ccc(C2CC(=O)C(C(=O)c3ccc(Cl)cc3[N+](=O)[O-])C(=O)N2)cc1 (stereo unspecified) |
| 208 | CCOC(=O)c1scc2c1CN(C)C(=O)c1cncn1-2 |
| 212 | O=C(Nc1nonc1-c1ccccc1)NC1CCC(C(F)(F)F)CC1 (stereo unspecified) |
| 136 to 138 | CCCN(c1ncnc2c1ncn2C1OC(CO)C(O)C1O)n1cccc1 (stereo unspecified) |
| 85 | OC1CCc2c(F)cc(F)cc2C1 (stereo unspecified) |
| 30 to 31 | CCOC(=O)c1nn(C)cc1C(F)F |
| 75 to 76 | CCCCCCCCCCCCCCCCCCOc1cccc(C(=O)O)c1OCCCOc1ccc(OCc2ccccc2)cc1 |
| 63.4 to 65.1 | COc1cc(C=O)c(C)c(OC)c1 |
| 272 to 273 | CC(=O)Nc1ccc(C2=NNC(=O)NC2C)cc1 (stereo unspecified) |
| 150 to 151 | CCc1c2c(c(C)c(C)c1N1CCN(c3ccc(OC)cc3)CC1)OC(C)(C)C2 |
| 149 to 151 | COc1ccc(Cl)c(NC(=O)Cc2ccc(Cl)cc2)c1 |
| 165 to 168 | Clc1nc(-n2ccnc2)c2ccccc2c1-c1ccccc1 |
| 84 | COCCOCOc1ccc(-c2nnc(S)o2)cc1OCOCCOC |
| 70 to 74 | O=C(O)C1(c2ccc(CN3CCN(c4ccc(F)cc4F)CC3)cc2)CC1 |
| 211 to 212 | CCOC(=O)Cc1ccc(Nc2ncc3c(n2)N(C)C(=O)N(c2c(Cl)cccc2Cl)C3)cc1 |
| 38 to 41 | COc1cc(C(O)(C(F)(F)F)C(F)(F)F)cc(Br)c1NS(C)(=O)=O |
| 95 to 99 | CCCCCCc1cccc(N2CC(=O)NC(=O)N2)c1 |
| 67 to 68 | N#CCc1cc([N+](=O)[O-])c(F)cc1Cl |
